One series has as its system CCRF-CEM cells. Put plainly: Cell Culture Study I (MTX cytotoxicity, alamarBlue). Format: cell-based, human. The method, then: In this study, CCRF-CEM cells purchased from ATCC were cultured and then 12 tubes containing approximately 10^6 cells each treated for 72 hours with media (Group1), MTX 0.03 μM (Group2), MTX+Leucovorin 1 μM (Group3), MTX+Leucovorin 10 μM (Group4), MTX+Leucovorin 100 μM (GroupS), MTX+TK-112690 1 μM (Group6), MTX+TK-112690 10 μM (Group7) and MTX+TK-112690 100 μM (Group8). […] Viability was measured as percent reduction of alamarBlue absorbance.
The tumor cell line CCR-CEM (human T-cell acute lymphoblastic leukemia) is obtained from American Type Culture Collection (CRL-1593.2) and cultured in accordance with the product information sheet with the following exceptions: 55.3 cm^2 Petri dishes are used instead of 75 cm^2 culture flasks, and 1% penicillin-streptomycin solution (HyClone SV30010) and 1% GlutaMAX™ (Gibco 35050) are added to the culture medium.
TK-112690, the representative 2,2′-anhydropyrimidine test article, is dissolved in 40% DMSO, sterile filtered then diluted with sterile distilled water to obtain initial working solutions of 10, 100 and 1000 μM. In testing, a 100 fold dilution is made in culture media to give final assay concentrations of 0.1, 1.0 and 10.0 μM. MTX (SAFC Biosciences M8407) is dissolved in sterile distilled water and 5 N NaOH then sterile filtered. The final pH of the stock solution is 7.8 and working solutions are made with sterile distilled water for final assay concentrations of 30, 3.0, 0.3, 0.03 and 0.003 μM. Leucovorin (Sigma F-7878) is dissolved in sterile distilled water, sterile filtered and diluted with sterile distilled water for final assay concentrations of 0.1, 1.0 and 10.0 μM.
Aliquots of 100 μL of cell suspension are plated in 96 well microtiter plates (Corning costar 3595) and placed in an atmosphere of 5% CO2 at 37° C. (Fisher Scientific Isotemp 3500 CO2 Incubator). After 24 hours, 100 μL of growth medium [RPMI-1640 w/L-glutamine (Cambrex 12-702Q) fortified with sodium pyruvate (HyClone SH30239.01), fetal bovine serum (SAFC Biosciences 12107C) and HEPES buffer (Gibco 15630)] and 2 μL of test solution or vehicle are added respectively per well and the plates incubated for an additional 72 hour incubation. MTX is evaluated at concentrations of 0.003, 0.03, 0.30 and 3.0 μM alone or in combination with either a 2,2′-anhydropyrimidine test article or Leucovorin at concentrations of 0.1, 1.0, 10.0 μM. At the end of incubation, the efficacy of anti-cell proliferation is determined by optical absorbance at A=570 and 600 nm [Spectramax 250 (Molecular Devices)] in accordance with the standard alamarBlue™ (Biosource) protocol.
Group 1 is the cell control (media treated). Group 2 corresponds to cells treated with 0.03 μM MTX. Group 3 are cells treated with 1.0 μM Leucovorin. Group 4 are cells treated with 0.1 μM Leucovorin. […]
(The colour change of resazurin is a common sign of viable cells or microbes.)

The nature of series [1]: Mouse Study VI (plasma uridine and TK-112690 following TK-112690 treatment). Format: in vivo, CD-1 female mice. The method, then:
In this study, CD-1 female mice were injected ip with 120 mg/kg TK-112690 and plasma from the animals analyzed by HPLC using UV detection for TK-112690 and uridine. Concentrations of uridine and TK-112690 in plasma samples collected 0.08, 0.50, 1, 2, 4 or 12 hours post TK-112690 injection were determined by HPLC using UV detection. […] An increase in plasma uridine was noted almost immediately following administration of TK-112690. At 0.5 hour post TK-112690 dose, a 100 μg/mL plasma concentration TK-112690 is associated with a plasma uridine concentration of approximately 2 μg/mL of uridine (baseline uridine concentration approximately 0.5 μg/mL). As expected, inhibition of UPase by TK-112690 results in elevation of plasma uridine.
Plasma uridine concentration was determined by HPLC using UV detectionafter animals were treated with TK-112690 as follows. TK-112690 was dissolved in PBS to achieve a concentration of 500 mg/mL. CD-1 female mice were injected ip with a range of TK-112690 doses (0, 15, 30, 60 and 120 mg/kg) and plasma from the animals analyzed for TK-112690 uridine concentrations expected to be elevated through UPase inhibition by TK-112690. Plasma uridine concentrations were determined from plasma samples collected 0.08, 0.50, 1, 2, 4 or 12 hours post TK-112690 injection.
HPLC analysis was done at room temperature using a ThermoFinnigan Spectra System equipped with degasser, pump, autosampler and UV detector. Chromatograms will be constructed from a chart recorder equipped with a pen. […]
The micromolar concentration of plasma uridine was determined by linear equation (y=mx+b) generated from uridine and 5-FU calibration curve. The y value is calculated by taking ratio of peak heights (mm) of uridine and 5-FU. All peak heights from HPLC chromatograms were measured in millimeters using a ruler.
An identical approach was employed to quantitate TK-112690 in the samples except the response for TK-112690 was attenuated by a response factor determined from the injection into the HPLC of identical amounts of TK-112690 and uridine, […]

For `Cc1cn2c(nc1=O)O[C@H]1[C@H](O)[C@@H](CO)O[C@H]12` [TK-112690, 2,2′-anhydro-5-methyluridine], the “cell viability, MTX+TK-112690 versus MTX alone” value in the series with CCRF-CEM cells (0.03 μM MTX + TK-112690, 72 hours, p<0.844, 0.918, 1.000) was “not different”. Moreover, in the series on CCRF-CEM cells (without MTX, 72 hours), the “cell viability, test article alone versus control” value is given as “not statistically different than control”. In addition, the “dose dependence of plasma concentrations of TK-112690” value in series [1] (0, 15, 30, 60 and 120 mg/kg ip) was “increased with increasing doses”. In series [1] (0.5 hour post TK-112690 dose, at 100 μg/mL plasma TK-112690, baseline approximately 0.5 μg/mL), the plasma uridine concentration result is given as “approximately 2 μg/mL”. Moreover, in series [1] (female, CD-1, plasma, 120 mg/kg, 0.5 hour post TK-112690 dose, ip, mouse), the concentration at 0.5 h turned out to be 100 µg/mL.
